Assay results: ChEMBL document CHEMBL1201862, “PubChem BioAssay data set” (2004)
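How tested: cells in 96-well plates exposed to compound for 48 hours at five concentrations. The concentration for 50% growth inhibition is given as GI50.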 The source made the active and inactive calls. Cut-off read from the data, not from the text of the source: active = GI50 up to about 1.1 µM and inactive = higher.

How the values were obtained:
Experiment in all cases: DTP human tumour cell line panel, 48 h
A498 = system: A498
ACHN = system: ACHN
BT-549 = system: BT-549
EKVX = system: EKVX
HCC 2998 = system: HCC 2998
HCT-116 = system: HCT-116
HOP-62 = system: HOP-62
MDA-MB-435 = system: MDA-MB-435
MOLT-4 = system: MOLT-4
NCI-H522 = system: NCI-H522
NCI/ADR-RES = system: NCI/ADR-RES
OVCAR-4 = system: OVCAR-4
RXF 393 = system: RXF 393
SF-295 = system: SF-295
SK-MEL-5 = system: SK-MEL-5
SK-OV-3 = system: SK-OV-3
TK-10 = system: TK-10
UACC-257 = system: UACC-257
K562 = system: K562

Row | SMILES | GI50 (A498) | GI50 (ACHN) | GI50 (BT-549) | GI50 (EKVX) | GI50 (HCC 2998) | GI50 (HCT-116) | GI50 (HOP-62) | GI50 (MDA-MB-435) | GI50 (MOLT-4) | GI50 (NCI-H522) | GI50 (NCI/ADR-RES) | GI50 (OVCAR-4) | GI50 (RXF 393) | GI50 (SF-295) | GI50 (SK-MEL-5) | GI50 (SK-OV-3) | GI50 (TK-10) | GI50 (UACC-257) | GI50 (K562)
1 | CCOP(=O)(OCC)/C(C#N)=C/c1cccn1C | > 100 µM (inactive) | > 100 µM (inactive) | > 100 µM (inactive) | > 100 µM (inactive) | > 100 µM (inactive) | > 100 µM (inactive) | > 100 µM (inactive) | > 100 µM (inactive) | > 100 µM (inactive) | > 100 µM (inactive) | > 100 µM (inactive) | > 100 µM (inactive) | > 100 µM (inactive) | > 100 µM (inactive) | > 100 µM (inactive) | > 100 µM (inactive) | > 100 µM (inactive) | > 100 µM (inactive) | –
2 | Cc1oc2nc(N(C)C)nc(Cl)c2c1C | 29.9 µM (inactive) | > 100 µM (inactive) | > 100 µM (inactive) | 34.8 µM (inactive) | > 100 µM (inactive) | > 100 µM (inactive) | > 100 µM (inactive) | > 100 µM (inactive) | > 100 µM (inactive) | > 100 µM (inactive) | > 100 µM (inactive) | 32.1 µM (inactive) | 40.6 µM (inactive) | > 100 µM (inactive) | > 100 µM (inactive) | – | > 100 µM (inactive) | > 100 µM (inactive) | > 100 µM (inactive)
3 | CCCC(C)c1c(Cl)nc(Cl)nc1Cl (stereo not drawn) | – | 4.21 µM (inactive) | 1.99 µM (inactive) | 18.3 µM (inactive) | 5.18 µM (inactive) | 1.73 µM (inactive) | 8.36 µM (inactive) | 3.75 µM (inactive) | 1.49 µM (inactive) | 1.13 µM (inactive) | 33.4 µM (inactive) | 17.1 µM (inactive) | 10.6 µM (inactive) | 18.5 µM (inactive) | 3.41 µM (inactive) | 20.2 µM (inactive) | 20.9 µM (inactive) | 11 µM (inactive) | 3.37 µM (inactive)
4 | Cc1cc(S(=O)(=O)Nc2nc(-c3ccccn3)n[nH]2)c(S)cc1Cl | 16.9 µM (inactive) | 15.8 µM (inactive) | 17.9 µM (inactive) | 16.1 µM (inactive) | 15 µM (inactive) | 16.1 µM (inactive) | 9.75 µM (inactive) | 25.1 µM (inactive) | 22.7 µM (inactive) | 27.4 µM (inactive) | 6.5 µM (inactive) | 18.6 µM (inactive) | 17.4 µM (inactive) | – | 8.55 µM (inactive) | 12.9 µM (inactive) | 10 µM (inactive) | 30.9 µM (inactive) | –
5 | C#CCOCC12C=CC(O1)C1C(=O)N(C)C(=O)C12 (stereo not drawn) | > 100 µM (inactive) | > 100 µM (inactive) | > 100 µM (inactive) | > 100 µM (inactive) | > 100 µM (inactive) | > 100 µM (inactive) | > 100 µM (inactive) | > 100 µM (inactive) | > 100 µM (inactive) | – | > 100 µM (inactive) | > 100 µM (inactive) | > 100 µM (inactive) | > 100 µM (inactive) | > 100 µM (inactive) | > 100 µM (inactive) | > 100 µM (inactive) | – | –
6 | O=C(O)CO[C@@]12C#C/C=C\C#C[C@@H]3N(C(=O)Oc4ccccc4)c4ccccc4[C@]14O[C@@]34CCC2 | 59.3 µM (inactive) | 85.9 µM (inactive) | 30.1 µM (inactive) | > 100 µM (inactive) | 12.5 µM (inactive) | 33.4 µM (inactive) | 83.8 µM (inactive) | 1.53 µM (inactive) | 28.8 µM (inactive) | 33.5 µM (inactive) | 31.6 µM (inactive) | 56.1 µM (inactive) | – | > 10 µM (inactive) | 28 µM (inactive) | 6.75 µM (inactive) | > 100 µM (inactive) | 55.7 µM (inactive) | 23.7 µM (inactive)
7 | COC(=O)c1ccc(C)cc1/C=C1\Cc2ccc(C)cc2C1=O | 19.1 µM (inactive) | 30.8 µM (inactive) | 4.91 µM (inactive) | 26.2 µM (inactive) | 19.7 µM (inactive) | 11.1 µM (inactive) | 15.5 µM (inactive) | 4.28 µM (inactive) | 13.2 µM (inactive) | 17.1 µM (inactive) | 29.4 µM (inactive) | 14.4 µM (inactive) | 14.7 µM (inactive) | 15.3 µM (inactive) | 13.9 µM (inactive) | – | 21.1 µM (inactive) | 22.6 µM (inactive) | 6.58 µM (inactive)
8 | O=C1CC(C(O)CO)CC(=O)N1 (stereo not drawn) | > 100 µM (inactive) | > 100 µM (inactive) | > 100 µM (inactive) | – | > 100 µM (inactive) | > 100 µM (inactive) | > 100 µM (inactive) | > 100 µM (inactive) | > 10 µM (inactive) | > 100 µM (inactive) | > 100 µM (inactive) | – | – | > 100 µM (inactive) | > 100 µM (inactive) | – | > 100 µM (inactive) | > 100 µM (inactive) | > 100 µM (inactive)
9 | Cc1cc2c(c(C(=O)NCCC(=O)O)c1)Oc1c(cc(C)cc1C(=O)NCCC(=O)O)S2 | – | > 100 µM (inactive) | > 100 µM (inactive) | > 100 µM (inactive) | > 100 µM (inactive) | > 100 µM (inactive) | > 100 µM (inactive) | > 100 µM (inactive) | > 100 µM (inactive) | > 100 µM (inactive) | > 100 µM (inactive) | > 100 µM (inactive) | > 100 µM (inactive) | > 100 µM (inactive) | – | > 100 µM (inactive) | > 100 µM (inactive) | > 100 µM (inactive) | > 100 µM (inactive)
10 | O=P1(Cc2ccccc2)N(Cc2ccccc2)[C@@H]2CCCC[C@H]2N1Cc1ccccc1 | – | 12.4 µM (inactive) | 17.7 µM (inactive) | 9.62 µM (inactive) | 8.89 µM (inactive) | 6.73 µM (inactive) | 15.5 µM (inactive) | 5.96 µM (inactive) | 2.72 µM (inactive) | 3.97 µM (inactive) | 5.85 µM (inactive) | 3.01 µM (inactive) | 9.51 µM (inactive) | 6.59 µM (inactive) | 1.79 µM (inactive) | 13 µM (inactive) | 13.5 µM (inactive) | 6.41 µM (inactive) | 5 µM (inactive)
11 | CSc1nc(SC)c2c(C)cn(COCCOC(=O)c3ccccc3)c2n1 | 42.6 µM (inactive) | > 100 µM (inactive) | > 100 µM (inactive) | > 100 µM (inactive) | > 100 µM (inactive) | 83 µM (inactive) | > 100 µM (inactive) | > 100 µM (inactive) | 59.6 µM (inactive) | > 100 µM (inactive) | > 100 µM (inactive) | > 100 µM (inactive) | 82.6 µM (inactive) | > 100 µM (inactive) | > 100 µM (inactive) | 24.3 µM (inactive) | > 100 µM (inactive) | – | –
12 | N=c1c2c3n(c4c(=O)n(-c5ccccc5)c(=S)n(c(=O)n1-c1ccccc1)c24)CCCCC3 | > 96.2 µM (inactive) | > 100 µM (inactive) | > 100 µM (inactive) | > 91.4 µM (inactive) | > 100 µM (inactive) | > 100 µM (inactive) | 99.3 µM (inactive) | > 100 µM (inactive) | – | > 100 µM (inactive) | > 100 µM (inactive) | > 100 µM (inactive) | > 75.7 µM (inactive) | > 100 µM (inactive) | > 100 µM (inactive) | > 81.1 µM (inactive) | > 100 µM (inactive) | > 100 µM (inactive) | –
13 | C/C1=C/C(=O)O[C@@H]2C[C@@H](CC[C@H](C)/C=C\C=C\CC1)O[C@@](O)([C@@H]1CSC(=O)N1)C2 [LATRUNCULIN A] | 0.111 µM (active) | 0.313 µM (active) | 0.305 µM (active) | 0.74 µM (active) | > 2.97 µM (inactive) | 0.773 µM (active) | 0.178 µM (active) | 0.44 µM (active) | > 5.83 µM (inactive) | – | 3.01 µM (inactive) | 1.02 µM (active) | 0.191 µM (active) | 0.262 µM (active) | 0.444 µM (active) | > 4.16 µM (inactive) | 0.264 µM (active) | 2.51 µM (inactive) | 3.34 µM (inactive)
14 | O=C1ON=C2C3CC4CC12CC1(C3)C(=O)ON=C41 | > 100 µM (inactive) | > 100 µM (inactive) | > 100 µM (inactive) | > 100 µM (inactive) | > 100 µM (inactive) | > 100 µM (inactive) | > 100 µM (inactive) | > 100 µM (inactive) | > 100 µM (inactive) | > 100 µM (inactive) | > 100 µM (inactive) | > 100 µM (inactive) | > 100 µM (inactive) | > 100 µM (inactive) | > 100 µM (inactive) | – | – | > 100 µM (inactive) | > 100 µM (inactive)
15 | Cc1ccc(C2(c3ccc(Cl)cc3)c3ccccc3C3=NCCN32)cc1 (stereo not drawn) | 4.92 µM (inactive) | 6.93 µM (inactive) | 12.6 µM (inactive) | 14.1 µM (inactive) | 5.58 µM (inactive) | 2.19 µM (inactive) | 9.68 µM (inactive) | 2.86 µM (inactive) | 3.66 µM (inactive) | – | 10 µM (inactive) | 1.83 µM (inactive) | 2.31 µM (inactive) | 1.59 µM (inactive) | 10.9 µM (inactive) | 6.08 µM (inactive) | 5.43 µM (inactive) | 6.55 µM (inactive) | 3.74 µM (inactive)
16 | Cc1ccc(N(C)S(=O)(=O)c2ccccc2)cc1 | – | > 100 µM (inactive) | 61 µM (inactive) | 97.9 µM (inactive) | > 100 µM (inactive) | 86.5 µM (inactive) | > 100 µM (inactive) | 74 µM (inactive) | 19 µM (inactive) | > 100 µM (inactive) | > 100 µM (inactive) | > 100 µM (inactive) | 29.5 µM (inactive) | > 100 µM (inactive) | 67.5 µM (inactive) | > 100 µM (inactive) | > 100 µM (inactive) | > 100 µM (inactive) | 34.8 µM (inactive)
